“And” between values parts separate entries of the source, which are not always exact repeats. Identical values can stand only once. *1 amine or outer side, *2 acyl side, *3 side chain or, on linkers, in order; H or OH if unused. Where a SMILES comes first, the peptide text is derived from it. Bridges are numbered along the chain shown (N, C = ends). [ ]: non-standard residue; d: D form. The star is where a group is joined. ξ: configuration not given here. ξThr(3R)(O-yl) = C[C@@H](O[*:3])C(N[*:1])C(=O)[*:2]; βAsp = O=C(O)[C@H](CC(=O)[*:2])N[*:1]; His(π-Me) = Cn1cncc1C[C@H](N)C(=O)O; For = O=C*
How the values were obtained:
[1] = system: M. tuberculosis GyrA D94N mutant; type: cell-based
[2] = system: M. tuberculosis bacA mutants (L469P, L470P and S577R; bacA deletion mutant); type: cell-based
MtbGyrase GyrA mutants = type: biochemical, M. tuberculosis
[3] = system: M. tuberculosis H37Rv mc^26020

## C[C@H]1OC(=O)C[C@@H](C(=O)O)NC(=O)[C@H](CO)NC(=O)[C@@H](CCCNC(=N)N)NC(=O)CNC(=O)[C@H](Cc2ccccc2)NC(=O)[C@@H](CO)NC(=O)C[C@@H](C(=O)O)NC(=O)[C@H](Cc2cncn2C)NC(=O)C1NC(=O)[C@@H](CCCNC(=N)N)NC(=O)[C@@H](NC(=O)[C@H](Cc1c[nH]c2ccccc12)NC=O)[C@@H](C)O (stereo partly drawn) [compound of Formula IV] (For-WT[dR][ξThr(3R)(O-yl)][His(π-Me)][βAsp][dS]FG[dR]SD-OH; ester 4-12)
[1]
  MIC: 0.25 µg/mL
[2]
  MIC against bacA mutants: 8 to 16 µg/mL and 8 µg/mL
  MIC against bacA mutants as multiple of wild-type MIC: 32-64 ×MIC and 32 ×MIC
MtbGyrase GyrA mutants
  drug-induced cleavage with MtbGyrAP353L and MtbGyrAA32V: relatively strong resistance
  reduced cleavage compared to wildtype MtbGyrase: 5 to 100 fold
[3]
  frequency of highly resistant mutants: 6.1×10^−9 to 1.7×10^−8
  frequency of resistant mutants: 7.2×10^−6 to 1.6×10^−5

Reference: US20240287139A1, “A NOVEL COMPOUND ACTING AGAINST A SELECT GROUP OF BACTERIA” (priority 2021, published 2024)
